The values below come from US20150258043A1, “USE OF SPHINGOID LONG CHAIN BASES AND THEIR ANALOGS IN TREATING AND PREVENTING BACTERIAL INFECTIONS” (YEDA RESEARCH AND DEVELOPMENT CO. LTD., priority 2012, published 2015).

“Also recorded” adds a separate entry of the source. Read-outs that look alike come from different tables or passages of the source.

One series deals with P. aeruginosa strain 762. The series can be described thus: Effect of LCBs on P. aeruginosa growth in vitro (colony counts). Conditions: for inhibition of P. aeruginosa growth in vitro (in words): concentrations up to 50 μM. The series is classed as cell-based, Pseudomonas aeruginosa. The procedure: P. aeruginosa strain 762 or ATCC 27853 were grown in LB medium at 37° C. until the early logarithmic phase (OD550 0.2). Bacteria were then diluted in PBS to a concentration of 5×10^3 CFU/ml. Stock solutions of sphingolipids (5 mM in 7.5% n-Octyl-β-D-Glucopyranoside (OGP) or in DMSO were prepared by sonication. Sphingolipids were added to the bacteria (0.1-50 μM in 0.075% OGP or 1% DMSO). Bacteria were incubated with sphingolipids for 2 hr at 37° C. and a sample of 200 μl bacteria solution were plated on LB agar plates, incubated overnight at 37° C. and colonies were counted.
The direct effect of sphingosine and other sphingoid long chain bases (LCBs) on the growth of P. aeruginosa was examined in vitro. Bacteria were incubated with a variety of LCBs and the EC50 values on bacterial growth were determined (Table 1).

The conditions of series [1]: cited from earlier work.
The subject of series [2] is P. aeruginosa strains 762, PA14 and ATCC 27853. Briefly: Pulmonary P. aeruginosa infection of CF and CerS2 null mice, inhalation treatment (bacteria in lung, sickness score). It counts as in vivo, mouse. As to conditions: CF and CerS2 null mice; inhalation (125 μM) 1 h before or 1 h after intranasal infection with 1×10^8 CFU. The procedure:
(A,B) The number of bacteria in the lungs and the overall sickness score (C,D) of WT, CerS2 null and CF mice 3-4 h after intranasal infection with 1×10^8 CFU of P. aeruginosa strains 762 (A,C) and CF mice with strains PA14 and ATCC 27853. Mice were inhaled with 0.9% NaCl or acid ceramidase 1 h prior (b.i.) to infection, or with sphingosine or FTY720 1 h before (b.i.) or 1 h after (a.i.) infection. Sickness score 4, severely affected (unresponsive animal); score 3 affected, (heavy breathing, low body temperature, ruffled fur) score 2, moderately affected (ruffled fur, heavy breathing); score 1, slightly affected (ruffled fur); score 0, unaffected (healthy appearance). Data are means±s.d., n=4.
Pulmonary infection of CF or CerS2 mice was achieved by intranasal application of P. aeruginosa strains 762, ATCC 27853 or PA14. Mice inhaled acid ceramidase, sphingosine, FTY720 or a combination of sphingosine and ceramide 1 hr before or after pulmonary infection. The number of bacteria in the lung was determined by culturing aliquots of lysed lungs on agar plates. Clinical symptoms of the infection were scored.
Inhalation was performed with a PARI Boy SX nebulizer (PARI GmbH, Starnberg, Germany). This nebulizer generates a fine aerosol mist by pumping the fluid with an air jet. The mice inhaled the aerosol via a mask that is part of an oral inhalation device for children (LL-Nebulizer); the mask was clipped at the sides to cover only the mouse's nose and the surrounding part of the face. […]
P. aeruginosa were grown for 14 to 14.5 h on fresh tryptic soy agar (TSA) plates (Becton Dickinson Biosciences, Germany). […] The bacterial OD was determined, and the bacteria were diluted in prewarmed H/S to a concentration of 1×10^8 CFU per 20 μL. […]
Lungs were removed, homogenised and lysed for 10 min in 5 mg/ml saponin to release intracellular bacteria. […] Bacterial counts (CFU) were counted after 18 h.

Series [3] concerns P. aeruginosa ATCC 27853 internalization into tracheal epithelial cells. Briefly: Uptake of P. aeruginosa into tracheal epithelial cells with cytochalasin B. The series is classed as cell-based, mouse. As to conditions: 10 μM cytochalasin B; strain ATCC 27853; data not shown.
Where [4] appears, read: Pseudomonas aeruginosa, 762, Table 3, Example 3, method of Example 2, n=3 for each analog, given as ranges, read-out: EC50.
Where [5] appears, read: Pseudomonas aeruginosa, P. aeruginosa strain 762, 2 hrs at 37° C. in 0.075% OGP, colonies counted, at least 3 independent experiments, read-out: EC50 (μM) ± S.D.
Setting [6] is: Pseudomonas aeruginosa, Table 2 non-inhibitors, strain 762, up to 50 μM in 0.075% OGP, 2 hrs at 37° C., read-out: EC50.

By EC50 is commonly meant the concentration at which the effect is half-maximal. With `CCCC[C@@H](C)[C@@H](OC(=O)C[C@@H](CC(=O)O)C(=O)O)[C@H](C[C@@H](C)C[C@H](O)CCCC[C@@H](O)C[C@H](O)[C@H](C)N)OC(=O)C[C@@H](CC(=O)O)C(=O)O` (stereo in doubt) [FB1, fumonisin B1, reference compound], the EC50 in the series with P. aeruginosa strain 762 (Pseudomonas aeruginosa, 762) is > 50 µM. Besides, the “inhibition of P. aeruginosa growth in vitro (in words)” value (“inhibition of P. aeruginosa growth” below) with P. aeruginosa strain 762 is “without effect; also recorded: did not inhibit growth of the bacteria at all”. For the same compound, the “pKa (in PBS)” value in series [1] (superscript reference mark) is >9^4.
`CCCCCCCCCCCCC/C=C/[C@H](O)[C@H](N)CO[C@@H]1O[C@H](CO)[C@H](O)[C@H](O)[C@H]1O` (stereo in doubt) [Galactosyl Sphingosine (Psychosine), Galactosyl D-erythro-sphingosine (psychosine)]: the results for the EC50 in the series with P. aeruginosa strain 762 (setting [4]) and with P. aeruginosa strain 762 (setting [5]) were 1 to 5 µM and 2.2 ± 1.4 µM, respectively.
As for `CCCCCCCCCCCCCCC[C@@H](O)[C@H](N)CO` (stereo in doubt) [L-threo-dihydrosphingosine (Safingol), L-threo-dihydrosphingosine (L-threo-sphinganine)], the results for the EC50 in the series on P. aeruginosa strain 762 (setting [4]) and with P. aeruginosa strain 762 (setting [5]) were 0.5 to 1 µM and 0.4 µM, respectively. In addition, the “inhibition of P. aeruginosa growth” value with P. aeruginosa strain 762 (listed as L-threo-dihydrosphingosine) is given as “inhibits as well as the natural occurring D-erythro enantiomer”; in the series with P. aeruginosa strain 762 (listed as L-threo-sphinganine), “more potent than the neutral ones”.
`CCCCCCCCCCCCC/C=C/[C@@H](O)[C@H](N)CO` (stereo in doubt) [L-threo-sphingosine]: the EC50 is 0.5 to 1 µM in the series with P. aeruginosa strain 762 (setting [4]) and 0.6 ± 0.2 µM in the series on P. aeruginosa strain 762 (setting [5]).
Consider `CCCCCCCCCCCCC/C=C/[C@H](O)[C@H](N)COP(=O)(O)O` (stereo in doubt) [Sphingosine-1-P, sphingosine-1-phosphate, reference compound], for which the EC50 in the series on P. aeruginosa strain 762 (setting [4]) and in the series on P. aeruginosa strain 762 (setting [6]) was > 50 µM each time. The “inhibition of P. aeruginosa growth” value in the series with P. aeruginosa strain 762 is on record as “without effect”; in the series with P. aeruginosa strain 762 (listed as sphingosine-1-phosphate (S1P)) it was “did not inhibit growth of the bacteria at all”.
With `CCCCCCCCCCCCCCC[C@H](O)[C@@H](C)N` [1-deoxy-D-erythro-dihydrosphingosine], the EC50 in the series on P. aeruginosa strain 762 (setting [5]) came to 0.7 µM.
In the case of `CCCCCCCCCCCCC/C=C/[C@H](O)[C@@H](C)N` [1-deoxy-D-erythro-sphingosine], in the series with P. aeruginosa strain 762 (setting [5]), the EC50 came to 0.9 ± 0.1 µM.
On to `CCCCCCCCCCCCC/C=C/[C@@H](O)CN` [1-desoxymethyl sphingosine, 1-desoxymethylsphingosine], for which, in the series with P. aeruginosa strain 762 (setting [5]), the half-maximal effective concentration (EC50) was 0.7 ± 0.1 µM.
`CCCCCCCCCCCCC/C=C/C[C@H](N)CO` [3-deoxy-D-erythro-sphingosine]: the EC50 with P. aeruginosa strain 762 (setting [5]) came to 0.5 µM.
Consider `CCCCCCCCc1ccc(CC[C@](N)(CO)CCP(=O)(O)O)cc1` [(R)-FTY-phosphonate], for which the EC50 with P. aeruginosa strain 762 (setting [4]) was 5 to 50 µM.
As for `CCCCCCC/C=C/[C@@H](O)[C@@H](N)CO` [D-erythro-C12-Sphingosine], the concentration giving a half-maximal response (EC50) with P. aeruginosa strain 762 (setting [6]) is > 50 µM.
Take `CCCCCCCCC/C=C/[C@H](O)[C@H](N)CO` [D-erythro-C14-Sphingosine]: in the series on P. aeruginosa strain 762 (setting [6]), the 50% effective concentration (EC50) is > 50 µM.
As for `CCCCCCCCCCC/C=C/[C@H](O)[C@H](N)CO` [D-erythro-C16-Sphingosine, D-erythro-C16-sphingosine], the EC50 in the series on P. aeruginosa strain 762 (setting [5]) came to 1 ± 0.2 µM.
In the case of `CCCCCCCCCCCCCCC/C=C/[C@H](O)[C@H](N)CO` [D-erythro-C20-Sphingosine, D-erythro-C20-sphingosine], the EC50 in the series with P. aeruginosa strain 762 (setting [5]) amounted to 0.3 µM. The “inhibition of P. aeruginosa growth” value in the series on P. aeruginosa strain 762 is recorded as “more potent than C18-sphingosine”.
For the compound `CCCCCCCCCCCCCCC[C@@H](O)[C@@H](N)CO` [D-erythro-dihydrosphingosine, (2S,3R)-2-aminooctadecane-1,3-diol], the EC50 in the series on P. aeruginosa strain 762 (setting [4]) was 0.5 to 1 µM; with P. aeruginosa strain 762 (setting [5]) it was 0.6 ± 0.5 µM.
With `CCCCCCCCCCCCCCC[C@H](O)[C@@H](N)CO` [D-threo-dihydrosphingosine, D-threo-dihydrosphingosine (D-threo-sphinganine)], the EC50 in the series with P. aeruginosa strain 762 (setting [5]) turned out to be 0.5 ± 0.1 µM.
`CCCCCCCCCCCCC/C=C/[C@H](O)[C@@H](N)CO` [D-threo-sphingosine]: in the series on P. aeruginosa strain 762 (setting [5]), the EC50 was 0.6 ± 0.1 µM.
Consider `CCCC[C@@H](C)[C@@H](OC(=O)C[C@@H](CC(=O)O)C(=O)O)[C@H](C[C@@H](C)C[C@H](O)CCCC[C@@H](O)C[C@H](O)[C@H](C)N)OC(=O)C[C@@H](CC(=O)O)C(=O)O` [FB1, fumonisin B1, reference compound], for which the EC50 with P. aeruginosa strain 762 (Pseudomonas aeruginosa, 762, 2 h) is > 50 µM.
As to `CCCCCCCCc1ccc(CCC(N)(CO)CO)cc1` [FTY720, 2-amino-2-[2-(4-octylphenyl)ethyl]propane-1,3-diol], the EC50 is 1 to 5 µM in the series on P. aeruginosa strain 762 (setting [4]) and 1.9 µM in the series with P. aeruginosa strain 762 (setting [5]). The “protection from pulmonary P. aeruginosa infection” value in series [2] was “completely protected CF and CerS2 null mice from P. aeruginosa infection and even eliminated an existing infection; also recorded: potent inhibitor in vivo; also recorded: rescue CF and CerS2 null mice from pulmonary P. aeruginosa infection; also recorded: prevents pulmonary P. aeruginosa infection”. Further, the “pK (in PBS)” value in series [1] (superscript reference marks) is given as 7.8^3.
Turning to `CCCCCCCCCCCCCCC[C@@H](O)[C@@H](N)CO` [L-erythro-dihydrosphingosine, L-erythro-dihydrosphingosine (L-erythro-sphinganine)], the EC50 with P. aeruginosa strain 762 (setting [5]) was 0.8 ± 0.1 µM.
The same measure, in the same setting: the value for `CCCCCCCCCCCCC/C=C/[C@@H](O)[C@@H](N)CO` [L-erythro-sphingosine] was 0.8 ± 0.1 µM; that for `CCCCCCCCCCCCC/C=C/[C@@H](O)[C@H](CO)NC` [Monomethyl D-erythro-Sphingosine, Monomethyl D-erythro-sphingosine] was 1.9 ± 0.1 µM.
As for `CCCCCCCCCCCCCCC[C@@H](O)[C@H](CO)NC(C)=O` [N-acetyl-D-erythro-dihydrosphingosine], the EC50 in the series on P. aeruginosa strain 762 (setting [6]) was > 50 µM. Besides, in the series with P. aeruginosa strain 762, the “inhibition of P. aeruginosa growth” value is “reduces the activity”.
Consider `CCCCCCCCCCCCCC[C@@H](O)[C@@H](O)[C@@H](N)CO` [Phyto-sphingosine, 4-D-hydroxysphinganine (phytosphingosine)], for which, in the series with P. aeruginosa strain 762 (setting [5]), the EC50 came to 0.9 µM. For the same compound, the “category as bacterial growth inhibitor” value with P. aeruginosa strain 762 (classes by EC50) is recorded as “strong inhibitor”.
Turning to `C=C1[C@@H](C)[C@H]2[C@H](Cc3ccccc3)NC(=O)[C@]23OC(=O)/C=C/[C@H](O)CCC[C@@H](C)C/C=C/[C@H]3[C@@H]1O` [cytochalasin B], the “internalization of P. aeruginosa into tracheal epithelial cells” value in series [3] is listed as “prevented internalization”.
